Active and inactive are the calls of the source. No cut-off for these calls is given here. Where only a bound is given, the exact number is not on record here.

Our source for the Activity, TGI and IC50 values is ChEMBL document CHEMBL4811222, “Antitumor Activity of Asperphenin B by Induction of Apoptosis and Regulation of Glyceraldehyde-3-phosphate Dehydrogenase in Human Colorectal Cancer Cells” (J Nat Prod, 2021).

Assay [1] concerns RKO. The assay can be described thus: Antitumor activity against human RKO cells implanted in ip dosed BALB/c nude mouse assessed as suppression of GAPDH expression in tumor lysates administered three times per week for 21 days by Western blotting analysis. The format is functional, organism-based. The conditions noted are these: Neoplasm, time 21.0 day.
Assay [2] has as its system RKO. The assay can be described thus: Antitumor activity against human RKO cells implanted in BALB/c nude mouse assessed as suppression of Ki67 expression level in tumor lysates at 4 to 8 mg/kg, ip administered three times per week for 21 days by Western blotting analysis. The format is functional, organism-based. The conditions noted are these: Neoplasm, dose 4-8 mg/kg, time 21.0 day.

Assay [3] concerns RKO. The assay can be described thus: Antitumor activity against human RKO cells implanted in BALB/c nude mouse assessed as inhibition of tumor growth at 4 mg/kg, ip administered three times per week for 21 days and measured every 3 to 4 days by electronic caliper method. The format is functional. The conditions noted are these: time 21.0 day.
Assay [4] has as its system RKO. The assay can be described thus: Suppression of GAPDH protein expression in human RKO cells at 2.5 to 10 uM after 24 hrs by Western blotting analysis. The format is functional, cell-based. The conditions noted are these: dose 2.5-10 µM.
The next assay deals with HCT-116. The assay can be described thus: Antiproliferative activity against human HCT-116 cells assessed as inhibition of cell growth incubated for 72 hrs by SRB assay. The format is functional, cell-based. The conditions noted are these: HCT-116, 72 h.
The next assay relates to CCD-841CoN. Nature of the assay: Antiproliferative activity against human CCD-841CoN cells assessed as inhibition of cell growth incubated for 72 hrs by SRB assay. The format is cell-based.
A further assay concerns CCD-18Co. The assay can be described thus: Antiproliferative activity against human CCD-18Co cells assessed as inhibition of cell growth incubated for 72 hrs by SRB assay. The format is cell-based.
The next assay has as its system LS174T. Nature of the assay: Antiproliferative activity against human LS174T cells assessed as inhibition of cell growth incubated for 72 hrs by SRB assay. The format is functional, cell-based.
In assay [5] the test system is RKO. Nature of the assay: Antiproliferative activity against human RKO cells assessed as inhibition of cell growth incubated for 72 hrs by SRB assay. The format is functional, cell-based.
The subject of assay [6] is RKO. Nature of the assay: Antitumor activity against human RKO cells implanted in BALB/c nude mouse assessed as inhibition of tumor growth at 8 mg/kg, ip administered three times per week for 21 days and measured every 3 to 4 days by electronic caliper method. The conditions noted are these: time 21.0 day. The format is functional.
The subject of a further assay is SW480. The assay can be described thus: Antiproliferative activity against human SW480 cells assessed as inhibition of cell growth incubated for 72 hrs by SRB assay. The format is functional, cell-based. The following applies: SW480, 72 h.

Consider `CCCCCCCCC[C@@H](O)CC(=O)N[C@@H](CC(N)=O)C(=O)N[C@@H](CCC(N)=O)C(=O)N[C@@H](CC(C)C)C1=C(c2c(O)cccc2O)c2c(O)cc(C)cc2C1=O`, for which the outcome in the assay on RKO [1], in the assay with RKO [2] and with RKO [4] was inactive. In addition, the TGI entry with RKO [3] and in the assay with RKO [6] was “inactive” in each case. Besides, the IC50 in the assay with HCT-116, in the assay with CCD-841CoN, with CCD-18Co, in the assay on LS174T, in the assay on RKO [5] and in the assay on SW480 was over 50 µM each time.

With `COc1cc([C@@H]2c3cc4c(cc3[C@@H](O[C@@H]3O[C@@H]5CO[C@@H](C)O[C@H]5[C@H](O)[C@H]3O)[C@H]3COC(=O)[C@H]23)OCO4)cc(OC)c1O` [ETOPOSIDE], the IC50 amounted to 0.66 µM with HCT-116; 8.71 µM in the assay on CCD-841CoN; 18.4 µM with CCD-18Co; 0.48 µM in the assay with LS174T; 1.96 µM in the assay with RKO [5]; 1.11 µM with SW480.
